`CC(C)(C)OC(=O)CCP(Br)(c1ccccc1)(c1ccccc1)c1ccccc1` showed a melting point of 190 °C. The figure for `CCCCCCCCCCc1ccc2cc(OC)ccc2c1` is 48.6 to 49.3 °C. As for `C=C(c1ccc(-n2ccnc2)nc1)C(O)(Cn1cncn1)c1ccc(F)cc1F` (stereo not given), the melting point lay within 145 to 148 °C. `CON=C1Cc2ccccc2N(C(N)=O)c2ccccc21`: the melting point fell in the range of 158 to 159 °C. Compound `CN1C(=O)CCC2=C1CCc1cc(F)ccc12` came in with a melting point of 108 °C. The same measure for `BrCCCCn1c2ccccc2c2ccccc21`: 102 to 104 °C; for `CCOC(=O)CC(NCc1ccccc1)=C(C(C)=O)C(=O)OCC`: 87 to 88 °C.

Turning to `CCOC(=O)COc1ccc2c(c1)C(=O)C(Br)CC2` (stereo not given), the melting point was in the range of 91 to 93 °C. The same measure for `O=C(Nc1c[nH]nc1C(=O)NCCCO)c1ccccn1`: 209 to 211 °C; for `CC(=O)NC1CCc2c([nH]c3cc(O)ccc23)C1` (stereo not given): 245 to 246 °C; for `CN1C(C)(C)CC(O[Si](c2ccccc2)(c2ccccc2)c2ccccc2)CC1(C)C`: 109 to 110 °C.

For the compound `CCCCNC(=O)C(C)(O[Si](C)(C)C(C)(C)C)c1ccc([N+](=O)[O-])cc1` (stereo not given), the melting point was in the range of 49 to 50 °C. On to `CCCCC1(CCCC)CCc2ccc(OCc3ccc4ccccc4n3)cc2C1=O`, for which the melting point was in the range of 88 to 89 °C. The same measure for `O=c1[nH]c2ccc(S(=O)CCN3CCC(Cc4ccccc4F)CC3)cc2o1` (stereo not given): 179 to 181 °C.

`Cn1cc(C(=O)C(=O)N2CCN(c3nc4cc(C(=O)Nc5nc(C(C)(C)C)cs5)ccn4c(=O)c3/C=C/C(=O)O)CC2)nc1N` yielded a melting point of 210 to 216 °C. The same measure for `COc1c(C2CCN(CCCCNC(=O)c3ccc(-c4ccc(C#N)cc4)cc3)CC2)ccc2c1CCCC2`: 154 °C. In turn, `Cn1ccnc1Sc1ccc2[nH]nc(N)c2c1` registered a melting point of 174 °C. Regarding `COc1cc2ccnc(N3CCN(c4ccc5c(c4)CCC(=O)N5)CC3)c2cc1OC`, the melting point lay within 235 to 240 °C.

Consider `CCC(=O)OCC(CCn1cnc2cnc(N)nc21)COC(=O)CC`, for which the melting point was 77.5 to 79 °C. Regarding `Cc1cccc(CCC(CO)n2cnc(C(N)=O)c2)c1` (stereo not given), the melting point lay in the range of 116 to 118 °C. With `Oc1cccc(C2CCCN(CCCc3ccccc3)C2)c1` (stereo not given), the melting point was in the range of 119 to 120 °C. Compound `O=C(O)CSC(c1ccccc1)(c1ccccc1)c1ccccc1` registered a melting point of 158 to 160 °C. With `CC(=O)NC(=O)CCc1ccc(OCCc2nc(-c3ccccc3)oc2C)cc1`, the melting point was in the range of 128 to 129 °C. Take `CCN(CC)CC1CCCCN1CC(=O)N1c2nc(C)cc(C)c2NC(=O)c2cccc(C)c21` (stereo not given): the melting point fell in the range of 213 to 215 °C. The same measure for `CC(C)(C)NS(=O)(=O)c1ccc([N+](=O)[O-])cc1`: 105 to 109 °C; for `COc1ccc2c(c1)c(-c1cc3cccnc3[nH]1)cn2C`: 226 to 227 °C; for `COc1c2c(c(OC)c(OC)c1OC)CC(CCCCOc1ccc(C(=O)N3CCOCC3)cc1)C2`: 64 to 72 °C. The same measure for `O=C(O)c1ccc(-c2nc(-c3cc(C(F)(F)F)cc(C(F)(F)F)c3)co2)cc1`: 277 to 279 °C; for `COc1ccc(-c2ccc(C(CCC(=O)O)=NO)cc2)cc1`: 157 to 160 °C. `CC(O)(CCC#N)c1ccc(Oc2cccc(Cl)c2)cc1` (stereo not given) had a melting point of 68 to 70 °C. The figure for `CCn1ncc2c(NCc3ccc(OCCN4CCOCC4)cc3)c3ccccc3nc21` is 170 to 172 °C. Consider `CC1CCn2c(nc(-c3ccncn3)cc2=O)N1` (stereo not given), for which the melting point lay in the range of 199 to 201 °C.

On to `CC(Nc1ccc(Oc2ccccc2)cc1)C(=O)O` (stereo not given), for which the melting point was determined as 160 °C. `CNc1nc(-c2ccccc2)c(-c2nc3ccccc3c(=O)n2-c2ccccc2C)s1` displayed a melting point of 220 to 225 °C. Turning to `CCCc1nc2cccc(C(O)=S)c2n1Cc1ccc(-c2ccccc2-c2nc(=O)o[nH]2)cc1`, the melting point was 220 to 221 °C.

These data come from a melting point compilation (Tetko et al.; mined from patent text by program, amines drawn as free bases though some values may be those of a salt).
